Converted amounts (≈) assume the structure as drawn. “And” between values parts separate entries of the source, which are not always exact repeats. Equal entries are not always repeated. Where two headings read alike, the source gives them in different places.
Assays:
[1] = test system: Mtb H37Rv; assay: microbe, parasite or virus in culture; format: cell-based, Mycobacterium tuberculosis; settings: for MIC: Mycobacterium tuberculosis, H37RV
[2] = test system: Mtb strain H37Rv; assay: MIC against Mtb H37Rv under various media/carbon sources; format: cell-based; settings: Mycobacterium tuberculosis
[3] = test system: cell wall responsive iniBAC promoter (piniB-LUX reporter strain); format: cell-based, Mycobacterium tuberculosis
[4] = test system: DNA damage responsive recA and radA reporters; format: cell-based, Mycobacterium tuberculosis
[5] = test system: iron uptake of Mtb H37Rv; assay: 55Fe iron uptake by Mtb; format: cell-based, Mycobacterium tuberculosis; settings: 55Fe-labelled medium; 1 at 10 μM, DFO at 39 μM
[6] = test system: Mtb H37Rv WT; assay: microbe, parasite or virus in culture; format: cell-based; settings: Mycobacterium tuberculosis
[7] = Microsomal stability, mouse; format: in vitro ADME; settings: liver microsomes of female mouse, read-out: % Remaining after 2 h incubation Mouse
Method: (§1) % Remaining after 2 h incubation
(§2) Compound Chemical Structure
(§3) Table S1. Microsomal stability of some pyrazolo[1,5-a]pyrimidin-7(4H)-one derivatives
(§4) Microsomal stability was tested in microsomes from liver of female mouse (M9566 from Sigma-Aldrich)a or microsomes
(§5) from human liver (M0317 from Sigma-Aldrich)b.

[8] = Microsomal stability, human; format: in vitro ADME; settings: human liver microsomes, read-out: % Remaining after 2 h incubation Human
Method: as §1, §2, §3, §4, §5

[9] = in vitro; settings: human, 24 h
[10] = test system: J774 cells; assay: Murine macrophage cytotoxicity (luminescence-based); settings: Mus musculus; murine macrophage cell line J774, 24 h; read-out: IC50 against J774 cells
[11] = test system: intramacrophage Mtb H37Rv; assay: Ex vivo efficacy against intracellular Mtb in J774 macrophages; format: cell-based, Mycobacterium tuberculosis
[12] = test system: Mtb H37Rv; assay: MIC under iron-depleted (DFO) or iron-replete (FeCl3) conditions; format: cell-based, Mycobacterium tuberculosis
[13] = pH 6, read-out: MIC nitrate/butyrate
[14] = Cytotoxicity (IC50) Galactose, HepG2 cells in DMEM/10% FBS with galactose
[15] = Cytotoxicity (IC50) Glucose, HepG2 cells in DMEM/10% FBS supplemented with glucose

Row | Compound | MIC ([1]; read-out: MIC in 7H9 ADC) [µM] | MIC ([1]; read-out: MIC in 7H9 GCas) [µM] | MIC ([2]; GAST/Fe, read-out: MIC GAST) [µM] | MIC [2, 13] [µM] | MIC ([2]; read-out: MIC 7H9) [µM] | MIC ([2]; read-out: MIC Chol) [µM] | MIC ([2]; read-out: MIC GBSA/DBSA) [µM] | reporter gene assay cell wall [3] | reporter gene assay DNA damage [4] | effect on iron uptake [5] | MIC [6] [µM] | remaining at 2 h [7] [%] | remaining at 2 h [8] [%] | IC50 [9, 14] [µM] | IC50 [9, 15] [µM] | improvement in MIC compared to the initial hit 1 [1] [fold] | IC50 [10] [µM] | increase in potency under iron-depleted conditions (MIC ratio) [12] [fold] | other results
1 | Cc1nn2c(=O)cc(-c3ccccc3)[nH]c2c1-c1ccccc1 [Compound 1, 2-Methyl-3,5-diphenylpyrazolo[1,5-a]pyrimidin-7(4H)-one] | 12.5 (≈ 3.77 µg/mL) | 3.12 (≈ 0.94 µg/mL) | 2.3 (≈ 0.693 µg/mL) | 12.5 (≈ 3.77 µg/mL) | 12.5 (≈ 3.77 µg/mL) | 9.4 (≈ 2.83 µg/mL) | 12.5 (≈ 3.77 µg/mL) | no | no | did not inhibit iron uptake | 1.2 (≈ 0.362 µg/mL) | 61 | 66 | > 100 | > 100 |  |  |  | 
2 | Cc1nn2c(=O)cc(-c3ccc(F)c(F)c3)[nH]c2c1-c1ccccc1 [Compound P19, 5-(3,4-Difluorophenyl)-2-methyl-3-phenylpyrazolo[1,5-a]pyrimidin-7(4H)-one] | 2.73 (≈ 0.921 µg/mL) | 1.56 (≈ 0.526 µg/mL) | 1.2 (≈ 0.405 µg/mL) | 1.56 (≈ 0.526 µg/mL) | 3.13 (≈ 1.06 µg/mL) | 3.13 (≈ 1.06 µg/mL) | 3.13 (≈ 1.06 µg/mL) | no | no |  | 0.78 (≈ 0.263 µg/mL) | 66 | 77 | 58.9 | > 100 | 5 | 29.6 ± 1.2 | ≤ 2 | reduction of bacterial burden [11]: ~0.5 logs
3 | Cc1nn2c(=O)cc(-c3ccc(Cl)c(Cl)c3)[nH]c2c1-c1ccc(F)cc1 [Compound P24, 5-(3,4-Dichlorophenyl)-3-(4-fluorophenyl)-2-methylpyrazolo[1,5-a]pyrimidin-7(4H)-one] | 2.34 (≈ 0.908 µg/mL) | 3.12 (≈ 1.21 µg/mL) |  |  |  |  |  |  |  |  | 1.56 (≈ 0.606 µg/mL) |  |  | 38.7 | > 100 | 8 | 22.5 ± 2.1 | ≤ 2 | 
4 | Cc1nn2c(=O)cc(-c3ccc(F)c(F)c3)[nH]c2c1-c1ccc(Cl)cc1 [Compound P25, 3-(4-Chlorophenyl)-5-(3,4-difluorophenyl)-2-methylpyrazolo[1,5-a]pyrimidin-7(4H)-one] | 1.95 (≈ 0.725 µg/mL) | 3.12 (≈ 1.16 µg/mL) |  |  |  |  |  |  |  |  |  |  |  | 52.6 | 94.3 | 8 | 20.2 ± 0.8 |  | reduction of bacterial counts [11]: 1.5 orders of magnitude and 2 orders of magnitude
5 | CC(=O)N(O)CCCCCNC(=O)CCC(=O)N(O)CCCCCNC(=O)CCC(=O)N(O)CCCCCN [DFO, desferrioxamine, reference compound] |  |  |  |  |  |  |  |  |  | completely inhibited uptake |  |  |  |  |  |  |  |  | MIC ([12]; Mycobacterium tuberculosis, H37RV, MIC of the iron-modulating additive itself): 250 µM

— paper PMC7887755, “Structure–Activity Relationships of Pyrazolo[1,5-a]pyrimidin-7(4H)-ones as Antitubercular Agents” (ACS Infectious Diseases, 2021)
